{
  "source": "paper PMC10356901",
  "about": "“Mitochondria-derived peptide SHLP2 regulates energy homeostasis through the activation of hypothalamic neurons” (Nature Communications, 2023)",
  "key": {"[1]": {"test_system": "POMC neurons expressing hM4Di", "assay": "Patch clamp of hM4Di-expressing POMC neurons on CNO application", "format": "cell-based, mouse", "conditions": "for Firing rate / Resting membrane potential (RMP): hM4Di-expressing POMC neurons, CNO", "experimental": "Slices were moved to a submerged-type recording chamber with continuous perfusion of carbogenated recording aCSF heated to 31 °C at a flow rate of approximately 2 mL/min. Tested compounds were added through bath perfusion. To block synaptic inputs, the aCSF contained 100 nM tetrodotoxin (TTX citrate; Tocris, 1069), 100 μM picrotoxin (Sigma-Aldrich, P8390), 100 μM D(−)-2-Amino-5-phosphonopentanoic acid (D-AP-V; Tocris, 0106) and 20 μM CNQX (CNQX-disodium; Tocris, 1045). To block ERK1/2 activation or PI3K signaling pathway, 10 µM of PD98059 (Tocris, 1213) or 1 µM of wortmannin (Tocris, 1232) was added to the bath solution for at least 30 min before any measurement. To test the effect of CNO on POMC neurons expressing the DREDD hM4Di receptor, 5 μM of CNO were applied for 1 to 2 min.\nPOMC or AgRP-expressing neurons in the ARC were identified with a brief exposure to epifluorescence on an upright microscope (Nikon FN1) using a 40X water-immersion objective and differential interference contrast optics. The pipette solution contains (in mM) 127 K-Methanesulfonate, 5 KCl, 10 HEPES, 0.3 EGTA, 4 Mg-ATP, 0.3 Na-GTP, and is of a pH adjusted to 7.3 with KOH and a 288 mOsm/kg osmolality. The patch pipettes have a resistance of 4-6 MΩ when filled with the pipette solution. […] The basal resting membrane potential and firing rate were recorded for around 3 min after breaking in, and bath perfusion of SHLP2 was applied for 3 to 5 min. Neurons were classified as responsive if there was a change in resting membrane potential of at least 2 mV during the period of drug application. The access resistance (Ra) was monitored throughout the experiment, and cells with a Ra of more than 35 MΩ were excluded from the analysis. Data were acquired at 10 kHz, filtered with a lowpass filter at 5 kHz and analyzed offline with Clampfit 10 (Molecular Devices). The calculated liquid junction potential was +9.55 mV and used to correct all data."}, "[2]": {"assay": "Dot blot for SHLP2 in CSF after IP injection", "format": "in vivo, mouse", "experimental": "The immuno-dot blot assay was performed by using the human and mice serum or mouse CSF. 0.2 μm nitrocellulose membranes were activated with ultrapure water (Invitrogen, 10977015), and 2 μL of samples were spotted on a membrane and dried for 30 mins at RT. The membrane was blocked in 5% BSA prepared in 1X Tris Buffered Saline-0.1% Tween 20 (TBST) for 1 h before being overnight incubated with anti-SHLP2 at 4 °C. Membranes were washed 3 times with 1X TBST, then incubated with anti-rabbit IgG (Invitrogen, 31460, 1:3000). The membranes were washed and visualized using the ImageQuant™ LAS 4000 (GE Healthcare Life Science). Blot densitometry was measured using ImageJ software (NIH Image). To quantitate the immuno-dot blot assay results, we prepared controls (total protein level stained by amido black), and subsequently established a calibration figure for each run of the assay."}, "CXCR7 [3]": {"biological_target": "T1, CXCR7 (Homo sapiens, UniProt P25106)", "T1 construct": "host or cells: CHO-K1", "T1 sequence (P25106 whole entry)": "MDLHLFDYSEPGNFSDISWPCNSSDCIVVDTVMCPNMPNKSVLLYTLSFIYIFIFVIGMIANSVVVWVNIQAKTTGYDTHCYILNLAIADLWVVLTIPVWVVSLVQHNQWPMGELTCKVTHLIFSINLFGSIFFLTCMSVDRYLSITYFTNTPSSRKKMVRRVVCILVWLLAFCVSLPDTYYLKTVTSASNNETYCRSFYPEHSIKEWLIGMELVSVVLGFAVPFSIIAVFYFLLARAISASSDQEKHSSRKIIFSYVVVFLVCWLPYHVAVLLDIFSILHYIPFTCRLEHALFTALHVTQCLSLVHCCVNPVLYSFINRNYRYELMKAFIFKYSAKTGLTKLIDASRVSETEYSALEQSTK", "T1 sequence (P32121 whole entry partner)": "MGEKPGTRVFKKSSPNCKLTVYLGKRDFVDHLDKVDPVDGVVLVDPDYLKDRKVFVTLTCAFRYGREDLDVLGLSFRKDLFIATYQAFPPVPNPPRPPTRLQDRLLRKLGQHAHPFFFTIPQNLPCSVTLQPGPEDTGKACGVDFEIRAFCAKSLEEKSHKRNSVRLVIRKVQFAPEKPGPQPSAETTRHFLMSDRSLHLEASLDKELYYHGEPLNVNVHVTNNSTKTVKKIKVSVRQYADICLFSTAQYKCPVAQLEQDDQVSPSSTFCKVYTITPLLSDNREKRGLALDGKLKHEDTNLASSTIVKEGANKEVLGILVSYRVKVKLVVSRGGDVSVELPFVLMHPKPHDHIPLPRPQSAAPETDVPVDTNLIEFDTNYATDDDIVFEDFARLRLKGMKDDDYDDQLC", "assay": "PathHunter β-Arrestin recruitment to CXCR7, dose response", "format": "cell-based", "conditions": "10-point curve, Hill / four-parameter logistic", "experimental": "The GPCR profiling was performed using PathHunter GPCRmax Arrestin recruitment assay with 168 known GPCRs provided by DiscoverX (Eurofins). This assay utilized Chinese Hamster Ovary CHO-K1 cells expressing GPCR tagged with ProLink (PK) and β-Arrestin2 tagged with a deletion mutant of β-galactosidase as an enzyme acceptor. Upon the binding of the ligand to the GPCR, the recruitment of tagged β-Arrestin2 to the GPCR causes the complementation of a functional β-galactosidase, hydrolyzing a chemiluminescence substrate. The assay was performed with known ligands in agonist and antagonist modes, with data presented as: %Activityagonist=100%×MeanRLUSHLP2−MeanRLU(vehiclecontrol)/MeanMAXRLUcontrolligand−MeanRLU(vehiclecontrol) and %Activityantagonist=100%×1−MeanRLUSHLP2−MeanRLU(vehiclecontrol)/MeanMAXRLUcontrolligand−MeanRLU(vehiclecontrol)\nThe dose response (EC50) was built using a 10-point curve and fit to a Hill Equation."}, "[4]": {"conditions": "cited from earlier work", "source_text": "One of the first MDPs discovered is Humanin, a 24-amino-acid peptide encoded by the mitochondrial 16S ribosomal RNA (rRNA) gene. It was originally identified in 2001 during a screening for neuroprotective factors against Alzheimer’s disease[6],[7]. […] Another MDP called Mito chondrial Open Reading Frame of the 12S rRNA-c (MOTS-c) is encoded by the mitochondrial 12S rRNA gene[9]. MOTS-c is a mitochondria-originated metabolic hormone which ... || In addition to humanin and MOTS-c, a recent study has identified an additional six small humanin-like peptides (SHLP1 to 6) encoded by the 16S rRNA gene of the mtDNA genome. […] However, the mechanism by which SHLP2 affec ..."}, "CXCR7 [5]": {"test_system": "CXCR7", "assay": "Nanoluc-complementation (NanoBiT) β-Arrestin2 recruitment to CXCR7", "format": "cell-based, human", "conditions": "HEK293T, n = 4 each group", "experimental": "The recruitment assay was performed based on Nano-luciferase[49]. The vectors (50 ng; gift of Prof. Jong-Ik Hwang, Korea University) encoding human CXCR7, CXCR4, and β-Arrestin2 tagged with SmBiT and LgBiT under Ubiquitin C promoter[49] were transfected into HEK293T cells in a 96-well clear bottom culture plate using Lipofectamine 2000 according to the manufacturer’s protocol. Cells were washed three times with an assay buffer containing (in mM) 140 NaCl, 2.5 KCl, 10 Glucose, 5 HEPES, 2 CaCl2, and 2 MgSO4, pH 7.4 after 24 h. Cells were then incubated with 5 µM Coelenterazine-h (Promega, S201) in the assay buffer for 30 min in the dark, and luminescence was measured at 35 °C in the Victor Nivo Multimode Plate reader (PerkinElmer). The background luminescence was measured for at least 10 min before the addition of ligands, and signals were monitored for at least 60 min after the application of SHLP2 or recombinant mouse CXCL12 (R&D systems, 460-SD-010/CF). The specificity of SHLP2 β-Arrestin2 recruitment through CXCR7 was also confirmed through the assay with CXCR4. Luminescent signals were collected through a 700 nm-IR filter and data were shown as light counts per each cycle of measurement."}, "[6]": {"biological_target": "CXCR7 tagged with ProLink (PathHunter CHO-K1 cell line) (UniProt P25106)", "sequence (P25106 whole entry)": "as the sequence (P25106 whole entry) above"}, "adipocytes": {"test_system": "adipocytes", "conditions": "in vitro; cited from earlier work", "source_text": "In addition to humanin and MOTS-c, a recent study has identified an additional six small humanin-like peptides (SHLP1 to 6) encoded by the 16S rRNA gene of the mtDNA genome. […] However, the mechanism by which SHLP2 affec ..."}, "[7]": {"assay": "Angiotensin II-induced water consumption test (Supplementary Fig. 4a)", "format": "in vivo, mouse", "conditions": "After (angiotensin II); individual animals", "experimental": "For intracerebroventricular (ICV) cannulation, mice were anesthetized by intraperitoneal injection (IP) of Zoletil (titelamine/zolazepam 30 mg/kg) and Rompun (xylazine 10 mg/kg), then placed onto a stereotaxic apparatus. After setting the ventricular coordinates, a permanent 26-gauge stainless steel cannula (Plastic one, Inc.) was implanted in the third ventricle (1.8 mm caudal to bregma, and 5.0 mm ventral to the sagittal sinus according to the Paxinos and Franklin’s atlas) and secured to the skull surface using a dental acrylic (Vertex). Mice were individually housed and allowed to recover for at least 1 week. The angiotensin II-induced water consumption test was performed to confirm the position of the ICV cannulation. […] Mice with no angiotensin II-induced thirst behavior were excluded from the experiments."}},
  "note": "“And” between values parts separate entries of the source, which are not always exact repeats. Identical values can stand only once. Where no end group is shown, it is not given here.",
  "data": [
    {"compound": "C[N+]1([O-])CCN(C2=Nc3cc(Cl)ccc3Nc3ccccc32)CC1", "note": "[CNO, Clozapine-N-oxide]", "values": [
      {"measurement": "effect on POMC neurons expressing hM4Di", "setting": "[1]; 5 μM CNO, 1 to 2 min, n = 6 from 2 animals", "result": "induced hyperpolarization of POMC neurons expressing hM4Di"},
      {"measurement": "resting membrane potential and firing rate of POMC neurons expressing hM4Di", "setting": "[1]; 5 μM CNO, n = 6 from 2 animals", "result": "decreases in the resting membrane potentials (h) and firing rates (i)"},
      {"measurement": "Firing rate", "setting": "[1]; replicate 1 of 6", "result": 0.3384},
      {"measurement": "Resting membrane potential (RMP)", "setting": "[1]; replicate 1 of 6", "result": -60.0566},
      {"measurement": "Firing rate", "setting": "[1]; replicate 2 of 6", "result": 0},
      {"measurement": "Resting membrane potential (RMP)", "setting": "[1]; replicate 2 of 6", "result": -63.8078},
      {"measurement": "Firing rate", "setting": "[1]; replicate 3 of 6", "result": 0.1759},
      {"measurement": "Resting membrane potential (RMP)", "setting": "[1]; replicate 3 of 6", "result": -77.9333},
      {"measurement": "Firing rate", "setting": "[1]; replicate 4 of 6", "result": 0.2189},
      {"measurement": "Resting membrane potential (RMP)", "setting": "[1]; replicate 4 of 6", "result": -57.1355},
      {"measurement": "Firing rate", "setting": "[1]; replicate 5 of 6", "result": 0.1654},
      {"measurement": "Resting membrane potential (RMP)", "setting": "[1]; replicate 5 of 6", "result": -59.3185},
      {"measurement": "Firing rate", "setting": "[1]; replicate 6 of 6", "result": 0.2879},
      {"measurement": "Resting membrane potential (RMP)", "setting": "[1]; replicate 6 of 6", "result": -55.5068}
    ]},
    {"compound": "MGVKFFTLSTRFFPSVQRAVPLWTNS [SHLP2, Small humanin-like peptide 2]", "values": [
      {"measurement": "SHLP2 in CSF, relative dot blot densitometry", "setting": "[2]; IP injection, individual animals (n = 3)", "result": "3.163 and 4.493 and 3.525"},
      {"measurement": "SHLP2 detection in CSF", "setting": "[2]; systemic (IP) injection", "result": "highly detected in the CSF"},
      {"measurement": "EC50", "setting": "CXCR7 [3]", "result": 970, "unit": "nM"}
    ]},
    {"compound": "Mito chondrial Open Reading Frame of the 12S rRNA-c (MRWQEMGYIFYPRKLR; UniProt A0A0C5B5G6 1-16, looked up) [MOTS-c, mitochondrial-derived peptide encoded by the mitochondrial 12S rRNA gene]", "values": [
      {"measurement": "lifespan", "setting": "[4]", "result": "promote lifespan"}
    ]},
    {"compound": "Small humanin-like peptide 1 [SHLP1]", "values": [
      {"measurement": "CXCR7 activation (β-Arrestin2 recruitment) by SHLP1 to 6", "setting": "CXCR7 [5]", "result": "but not by SHLP1, 3, 4, 5, or 6"}
    ]},
    {"compound": "Small humanin-like peptide 2 (SHLP2), biotinylated", "values": [
      {"measurement": "PathHunter β-Arrestin recruitment to CXCR7 (screen of 168 GPCRs, agonist mode): relative agonistic activity of SHLP2 as percent of the known ligand SDF1α/CXCL12 (% of the known ligand SDF1α/CXCL12)", "setting": "[6]", "result": 70},
      {"measurement": "PathHunter β-Arrestin recruitment to CXCR7, dose response to SHLP2 (10-point curve): EC50", "setting": "[6]", "result": 970, "unit": "nM"}
    ]},
    {"compound": "Small humanin-like peptide 3 [SHLP3]", "values": [
      {"measurement": "CXCR7 activation (β-Arrestin2 recruitment) by SHLP1 to 6", "setting": "CXCR7 [5]", "result": "but not by SHLP1, 3, 4, 5, or 6"},
      {"measurement": "cellular differentiation and insulin sensitivity in adipocytes", "setting": "adipocytes", "result": "enhance cellular differentiation and insulin sensitivity in adipocytes in vitro"}
    ]},
    {"compound": "Small humanin-like peptide 4 [SHLP4]", "values": [
      {"measurement": "CXCR7 activation (β-Arrestin2 recruitment) by SHLP1 to 6", "setting": "CXCR7 [5]", "result": "but not by SHLP1, 3, 4, 5, or 6"}
    ]},
    {"compound": "Small humanin-like peptide 5 [SHLP5]", "values": [
      {"measurement": "CXCR7 activation (β-Arrestin2 recruitment) by SHLP1 to 6", "setting": "CXCR7 [5]", "result": "but not by SHLP1, 3, 4, 5, or 6"}
    ]},
    {"compound": "Small humanin-like peptide 6 [SHLP6]", "values": [
      {"measurement": "CXCR7 activation (β-Arrestin2 recruitment) by SHLP1 to 6", "setting": "CXCR7 [5]", "result": "but not by SHLP1, 3, 4, 5, or 6"}
    ]},
    {"compound": "angiotensin II (DRVYIHPF; Angiotensin-2; UniProt P01019 25-32, looked up) [used in the water consumption test to confirm ICV cannula position]", "values": [
      {"measurement": "Fig. S4a water intake", "setting": "[7]", "result": "0.37 g and 0.63 g and 0.3 g and 0.21 g"}
    ]},
    {"compound": "humanin: 24-amino-acid peptide encoded by the mitochondrial 16S ribosomal RNA gene (MAPRGFSCLLLLTSEIDLPVKRRA; UniProt Q8IVG9 1-24, looked up)", "values": [
      {"measurement": "lifespan", "setting": "[4]", "result": "promote lifespan"}
    ]}
  ]
}
